Test system: macrophages derived from BALB/c mice
Test: Extracellular nitric oxide released by macrophages, measured with fiber sensors
Type: cell-based
Conditions: FIG. 19; macrophages treated with LPS and INF-γ and inhibited with 1 mM inhibitor
Experimental: Specifically, said sensors were placed in solution, approximately 0.5 cm from the macrophages.
In one embodiment, the above referenced sensors were used to quantify nitric oxide production by macrophages derived from BALB/c mice. […] Some macrophages were activated by overnight incubation with medium containing 100 U/mL IFN-γ enzyme Corp., Cambridge, Mass.) and 100 ng/mL LPS (List Biological Labs, Inc., Campbell, Calif.). In addition, to activation with IFN-γ and LPS, some cells were also treated with NMMA, (Sigma) to inhibit the production of nitric oxide. Prior to nitric oxide determinations, the macrophages were removed from incubation. For inactivated macrophages, the medium was exchanged for 2 mL Ringer's buffer. […] During measurements, the cells were kept at ambient temperature (25° C.) and 7.5 mg/mL propidium iodide was used to ascertain the degree of cell viability.
In another embodiment, macrophages were derived from the tibia and femur bone marrow of Harlan Sprague-Dawley BALB/c mice were cultured and plated by methods similar to previously published methods. For extracellular measurements with fiber sensors the cells where plated at a density of 2×10^5 on 25 mm coverslips, while those to be used for scrape-loading were plated onto 35 mm petri dishes (Nunc) at a density of 2×10^6. […]

CNC(=N)NCCC[C@H](N)C(=O)O [Nω-monomethyl-L-arginine, N^ω-monomethyl-L-arginine]
[NO]: 20 µM

Reference: US6900891B2, “Optical sensors for the detection of nitric oxide” (The Regents of the University of Michigan, priority 1999, dated 2005)
